Assay results published in patent US20230123334A1, “AMINO LIPID COMPOUND, PREPARATION METHOD THEREFOR, AND APPLICATION THEREOF” (SHENZHEN SHENXIN BIOTECHNOLOGY CO., LTD., priority 2020, published 2023).

system: HEK293 cells; test: Preliminary screening as mRNA vectors, EGFP mRNA transfection of HEK293 cells; type: cell-based; details: EGFP mRNA 50 ng per well, 96-well plates; percentage of GFP fluorescent cells relative to total number of cells (Hoechst)
Outline: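 HEK293 cells in DMEM plus 10% FBS transfected in 96-well format with 50 ng EGFP mRNA per well; Lipofectamine2000 served as positive control. Read-out is the percentage of GFP-fluorescent cells among total cells, counted by Hoechst nuclear stain.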

Compared with CCCCCCCCNc1nc(NCCCN(C)C)nc(SCCCCCC)n1 [Compound D6S6N8], CCCCCCCNc1nc(NCCCN(C)C)nc(SCCCCCCC)n1 [Compound D6S7N7] is higher in “Absolute mRNA transfection efficiency in HEK293 cells” value (“Absolute mRNA transfection efficiency” below): 0.4% for the first, 1.8% for the second.

Compared with CCCCCCCCCNc1nc(NCCCN(C)C)nc(SCCCCCC)n1 [Compound D6S6N9], CCCCCCCCNc1nc(NCCCN(C)C)nc(SCCCCCCC)n1 [Compound D6S7N8] is higher in “Absolute mRNA transfection efficiency” value: 0.3% for the first, 2.8% for the second.

Compared with CCCCCCCCCCCNc1nc(NCCCN(C)C)nc(SCCCCCC)n1 [Compound D6S6N11], CCCCCCCCCNc1nc(NCCCN(C)C)nc(SCCCCCCCC)n1 [Compound D6S8N9] is higher in “Absolute mRNA transfection efficiency” value: 2.5% for the first, 6.7% for the second.

Compared with CCCCCCCCCCCCNc1nc(NCCCN(C)C)nc(SCCCCCC)n1 [Compound D6S6N12], CCCCCCCCCCCNc1nc(NCCCN(C)C)nc(SCCCCCCC)n1 [Compound D6S7N11] is higher in “Absolute mRNA transfection efficiency” value: 3.5% for the first, 18.9% for the second.

First: CCCCCCCCCCCCCNc1nc(NCCCN(C)C)nc(SCCCCCC)n1 [Compound D6S6N13]
Second: CCCCCCCCCCCCNc1nc(NCCCN(C)C)nc(SCCCCCCC)n1 [Compound D6S7N12]
The “Absolute mRNA transfection efficiency” value of the first is lower: 3.0% for the first, 12.5% for the second.

Going from CCCCCCCCCCCCCCCNc1nc(NCCCN(C)C)nc(SCCCCCC)n1 [Compound D6S6N15] to CCCCCCCCCCCCCNc1nc(NCCCN(C)C)nc(SCCCCCCCC)n1 [Compound D6S8N13], the “Absolute mRNA transfection efficiency” value rises from 12.1% to 58.0%.

First: CCCCCCCCCCCCCCCCNc1nc(NCCCN(C)C)nc(SCCCCCC)n1 [Compound D6S6N16]
Second: CCCCCCCCCCCCCCCNc1nc(NCCCN(C)C)nc(SCCCCCCC)n1 [Compound D6S7N15]
The “Absolute mRNA transfection efficiency” value of the first is higher: 40.4% for the first, 37.9% for the second.

First: CCCCCCCCCCCCCCCCCCNc1nc(NCCCN(C)C)nc(SCCCCCC)n1 [Compound D6S6N18]
Second: CCCCCCCCCCCCCCCCNc1nc(NCCCN(C)C)nc(SCCCCCCCC)n1 [Compound D6S8N16]
The “Absolute mRNA transfection efficiency” value of the first is lower: 60.1% for the first, 67.0% for the second.

Compared with CCCCCCSc1nc(NCCCN(C)C)nc(SCCCCCC)n1 [Compound D6S6S6], CCCCCCCSc1nc(NCCCN(C)C)nc(SCCCCCC)n1 [Compound D6S6S7] is lower in “Absolute mRNA transfection efficiency” value: 12.6% for the first, 11.3% for the second.

First: CCCCCCCCSc1nc(NCCCN(C)C)nc(SCCCCCC)n1 [Compound D6S6S8]
Second: CCCCCCCSc1nc(NCCCN(C)C)nc(SCCCCCCC)n1 [Compound D6S7S7]
The “Absolute mRNA transfection efficiency” value of the first is lower: 21.1% for the first, 29.3% for the second.

Going from CCCCCCCCCSc1nc(NCCCN(C)C)nc(SCCCCCC)n1 [Compound D6S6S9] to CCCCCCCCSc1nc(NCCCN(C)C)nc(SCCCCCCC)n1 [Compound D6S7S8], the “Absolute mRNA transfection efficiency” value falls from 10.6% to 6.3%.

Going from CCCCCCCCCCSc1nc(NCCCN(C)C)nc(SCCCCCC)n1 [Compound D6S6S10] to CCCCCCCCCSc1nc(NCCCN(C)C)nc(SCCCCCCC)n1 [Compound D6S7S9], the “Absolute mRNA transfection efficiency” value falls from 31.4% to 14.3%.

First: CCCCCCCCCCCSc1nc(NCCCN(C)C)nc(SCCCCCC)n1 [Compound D6S6S11]
Second: CCCCCCCCCCSc1nc(NCCCN(C)C)nc(SCCCCCCC)n1 [Compound D6S7S10]
The “Absolute mRNA transfection efficiency” value of the first is lower: 15.7% for the first, 18.1% for the second.

First: CCCCCCCCCCCCSc1nc(NCCCN(C)C)nc(SCCCCCC)n1 [Compound D6S6S12]
Second: CCCCCCCCCCCSc1nc(NCCCN(C)C)nc(SCCCCCCC)n1 [Compound D6S7S11]
The “Absolute mRNA transfection efficiency” value of the first is lower: 24.7% for the first, 68.6% for the second.

Going from CCCCCCCCCCCCCCSc1nc(NCCCN(C)C)nc(SCCCCCC)n1 [Compound D6S6S14] to CCCCCCCCCCCCSc1nc(NCCCN(C)C)nc(SCCCCCCCC)n1 [Compound D6S8S12], the “Absolute mRNA transfection efficiency” value falls from 62.8% to 61.9%.

Going from CCCCCCCCCCCCCCCSc1nc(NCCCN(C)C)nc(SCCCCCC)n1 [Compound D6S6S15] to CCCCCCCCCCCCCCSc1nc(NCCCN(C)C)nc(SCCCCCCC)n1 [Compound D6S7S14], the “Absolute mRNA transfection efficiency” value rises from 47.0% to 59.7%.

First: CCCCCCCCCCCCCCCCSc1nc(NCCCN(C)C)nc(SCCCCCC)n1 [Compound D6S6S16]
Second: CCCCCCCCCCCCCCCSc1nc(NCCCN(C)C)nc(SCCCCCCC)n1 [Compound D6S7S15]
The “Absolute mRNA transfection efficiency” value of the first is lower: 34.4% for the first, 90.0% for the second.

Going from CCCCCCCCCCCCCCCCCCSc1nc(NCCCN(C)C)nc(SCCCCCC)n1 [Compound D6S6S18] to CCCCCCCCCCCCCCCCCCSc1nc(NCCCN(C)C)nc(SCCCCCCC)n1 [Compound D6S7S18], the “Absolute mRNA transfection efficiency” value falls from 83.3% to 22.0%.

Going from CCCCCCCSc1nc(NCCCCCC)nc(NCCCN(C)C)n1 [Compound D6S7N6] to CCCCCCCCSc1nc(NCCCCCC)nc(NCCCN(C)C)n1 [Compound D6S8N6], the “Absolute mRNA transfection efficiency” value rises from 8.8% to 9.4%.

Compared with CCCCCCCCCNc1nc(NCCCN(C)C)nc(SCCCCCCC)n1 [Compound D6S7N9], CCCCCCCCNc1nc(NCCCN(C)C)nc(SCCCCCCCC)n1 [Compound D6S8N8] is lower in “Absolute mRNA transfection efficiency” value: 5.9% for the first, 3.5% for the second.

First: CCCCCCCCCCCCCNc1nc(NCCCN(C)C)nc(SCCCCCCC)n1 [Compound D6S7N13]
Second: CCCCCCCCCCCCNc1nc(NCCCN(C)C)nc(SCCCCCCCC)n1 [Compound D6S8N12]
The “Absolute mRNA transfection efficiency” value of the first is lower: 44.9% for the first, 46.0% for the second.

First: CCCCCCCCCCCCCCCCNc1nc(NCCCN(C)C)nc(SCCCCCCC)n1 [Compound D6S7N16]
Second: CCCCCCCCCCCCCCCNc1nc(NCCCN(C)C)nc(SCCCCCCCC)n1 [Compound D6S8N15]
The “Absolute mRNA transfection efficiency” value of the first is lower: 44.8% for the first, 55.3% for the second.

Going from CCCCCCCCCCCCCCCCCCNc1nc(NCCCN(C)C)nc(SCCCCCCC)n1 [Compound D6S7N18] to CCCCCCCCCCCCCCCCNc1nc(NCCCN(C)C)nc(SCCCCCCCCC)n1 [Compound D6S9N16], the “Absolute mRNA transfection efficiency” value falls from 49.2% to 46.2%.

Going from CCCCCCCCCCCCSc1nc(NCCCN(C)C)nc(SCCCCCCC)n1 [Compound D6S7S12] to CCCCCCCCCCCSc1nc(NCCCN(C)C)nc(SCCCCCCCC)n1 [Compound D6S8S11], the “Absolute mRNA transfection efficiency” value falls from 93.8% to 92.3%.

First: CCCCCCCCCCCCCCCCSc1nc(NCCCN(C)C)nc(SCCCCCCC)n1 [Compound D6S7S16]
Second: CCCCCCCCCCSc1nc(NCCCN(C)C)nc(SCCCCCCCC)n1 [Compound D6S8S10]
The “Absolute mRNA transfection efficiency” value of the first is higher: 90.8% for the first, 70.2% for the second.

Compared with CCCCCCCCSc1nc(NCCCCCCC)nc(NCCCN(C)C)n1 [Compound D6S8N7], CCCCCCCCCSc1nc(NCCCCCC)nc(NCCCN(C)C)n1 [Compound D6S9N6] is lower in “Absolute mRNA transfection efficiency” value: 4.3% for the first, 1.4% for the second.

Going from CCCCCCCCCCCNc1nc(NCCCN(C)C)nc(SCCCCCCCC)n1 [Compound D6S8N11] to CCCCCCCCCCSc1nc(NCCCCCCCCC)nc(NCCCN(C)C)n1 [Compound D6S10N9], the “Absolute mRNA transfection efficiency” value falls from 32.3% to 8.7%.

Going from CCCCCCCCCCCCCCCCCCNc1nc(NCCCN(C)C)nc(SCCCCCCCC)n1 [Compound D6S8N18] to CCCCCCCCCCCCCCCCCCNc1nc(NCCCN(C)C)nc(SCCCCCCCCC)n1 [Compound D6S9N18], the “Absolute mRNA transfection efficiency” value rises from 40.4% to 44.8%.

Going from CCCCCCCCSc1nc(NCCCN(C)C)nc(SCCCCCCCC)n1 [Compound D6S8S8] to CCCCCCCCCSc1nc(NCCCN(C)C)nc(SCCCCCCCC)n1 [Compound D6S8S9], the “Absolute mRNA transfection efficiency” value rises from 45.6% to 59.9%.

Compared with CCCCCCCCCSc1nc(NCCCCCCC)nc(NCCCN(C)C)n1 [Compound D6S9N7], CCCCCCCCCCSc1nc(NCCCCCC)nc(NCCCN(C)C)n1 [Compound D6S10N6] is higher in “Absolute mRNA transfection efficiency” value: 1.2% for the first, 1.5% for the second.

First: CCCCCCCCCSc1nc(NCCCCCCCC)nc(NCCCN(C)C)n1 [Compound D6S9N8]
Second: CCCCCCCCCCSc1nc(NCCCCCCC)nc(NCCCN(C)C)n1 [Compound D6S10N7]
The “Absolute mRNA transfection efficiency” value of the first is higher: 7.5% for the first, 4.4% for the second.

Compared with CCCCCCCCCNc1nc(NCCCN(C)C)nc(SCCCCCCCCC)n1 [Compound D6S9N9], CCCCCCCCCCSc1nc(NCCCCCCCC)nc(NCCCN(C)C)n1 [Compound D6S10N8] is lower in “Absolute mRNA transfection efficiency” value: 19.8% for the first, 3.7% for the second.

Compared with CCCCCCCCCCCNc1nc(NCCCN(C)C)nc(SCCCCCCCCC)n1 [Compound D6S9N11], CCCCCCCCCCCCNc1nc(NCCCN(C)C)nc(SCCCCCCCCC)n1 [Compound D6S9N12] is lower in “Absolute mRNA transfection efficiency” value: 58.8% for the first, 39.3% for the second.

First: CCCCCCCCCCCCCNc1nc(NCCCN(C)C)nc(SCCCCCCCCC)n1 [Compound D6S9N13]
Second: CCCCCCCCCCCCNc1nc(NCCCN(C)C)nc(SCCCCCCCCCC)n1 [Compound D6S10N12]
The “Absolute mRNA transfection efficiency” value of the first is higher: 70.9% for the first, 25.4% for the second.

First: CCCCCCCCCCCCCCCNc1nc(NCCCN(C)C)nc(SCCCCCCCCC)n1 [Compound D6S9N15]
Second: CCCCCCCCCCCCCNc1nc(NCCCN(C)C)nc(SCCCCCCCCCC)n1 [Compound D6S10N13]
The “Absolute mRNA transfection efficiency” value of the first is higher: 36.5% for the first, 10.2% for the second.

For CCCCCCCCCCCNc1nc(NCCCN(C)C)nc(SCCCCCCCCCC)n1 [Compound D6S10N11], the “Absolute mRNA transfection efficiency” value was 10.0%.
